Molecular target: human ether-α-go-go related gene (hERG) potassium channel (Kv11.1) (Homo sapiens, UniProt Q12809)
Test: automated whole-cell patch clamp
Format: cell-based

Sequence of human ether-α-go-go related gene (hERG) potassium channel (Kv11.1) (Q12809 whole entry): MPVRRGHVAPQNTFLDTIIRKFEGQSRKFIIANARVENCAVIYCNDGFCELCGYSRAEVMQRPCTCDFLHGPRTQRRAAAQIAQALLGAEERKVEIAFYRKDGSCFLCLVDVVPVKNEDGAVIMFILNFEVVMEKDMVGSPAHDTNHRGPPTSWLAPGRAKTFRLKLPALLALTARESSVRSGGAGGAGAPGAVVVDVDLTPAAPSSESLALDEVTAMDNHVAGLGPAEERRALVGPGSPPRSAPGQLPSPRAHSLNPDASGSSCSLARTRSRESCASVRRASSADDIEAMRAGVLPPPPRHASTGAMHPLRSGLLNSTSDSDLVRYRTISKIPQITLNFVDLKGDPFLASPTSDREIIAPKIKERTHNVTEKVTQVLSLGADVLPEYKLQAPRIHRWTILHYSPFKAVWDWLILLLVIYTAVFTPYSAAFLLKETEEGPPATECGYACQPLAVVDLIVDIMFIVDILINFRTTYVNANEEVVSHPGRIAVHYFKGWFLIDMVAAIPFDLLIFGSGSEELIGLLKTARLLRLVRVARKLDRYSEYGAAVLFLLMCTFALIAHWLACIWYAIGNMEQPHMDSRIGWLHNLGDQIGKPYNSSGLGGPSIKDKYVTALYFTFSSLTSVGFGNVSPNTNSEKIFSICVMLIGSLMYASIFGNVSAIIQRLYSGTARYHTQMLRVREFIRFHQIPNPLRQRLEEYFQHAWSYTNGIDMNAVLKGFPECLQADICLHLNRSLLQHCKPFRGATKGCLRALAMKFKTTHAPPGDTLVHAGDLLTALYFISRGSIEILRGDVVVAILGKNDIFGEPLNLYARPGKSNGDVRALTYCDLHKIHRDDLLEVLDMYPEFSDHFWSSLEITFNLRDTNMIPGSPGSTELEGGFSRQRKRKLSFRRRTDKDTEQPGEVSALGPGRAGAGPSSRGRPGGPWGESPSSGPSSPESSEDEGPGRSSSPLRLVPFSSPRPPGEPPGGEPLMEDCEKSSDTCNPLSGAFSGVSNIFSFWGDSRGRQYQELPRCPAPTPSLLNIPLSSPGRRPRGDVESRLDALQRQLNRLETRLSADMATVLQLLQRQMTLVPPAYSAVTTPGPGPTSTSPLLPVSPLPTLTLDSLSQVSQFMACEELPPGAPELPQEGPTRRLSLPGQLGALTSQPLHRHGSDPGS

CCOC(=O)c1c(CSc2ccccc2)n(C)c2cc(Br)c(O)c(CN(C)C)c12 [Arbidol]
IC50: 303 nM

Source: article PMC12379310 (Virology Journal, 2025)
